Laboratory results published in the supplement of paper PMC10627819.

Assays:
S. aureus Newman [1] = assay: fitness (endpoint OD595 vs no drug) (fraction); higher = more growth
In short: (§1)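 At 37 °C, bacteria in TSB, LB Lennox or CY were grown in 384-well plates from a starting OD595 of 0.01. OD595 was measured every 30 min for 14 h, with the first reading used as background. Fitness is the optical density at the switch to stationary phase as a fraction of the robust mean of no-drug control wells, capped at 1.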

B. subtilis 168 [2] = assay: as above
In short: as §1

S. aureus DSM 20231 [3] = assay: as above
In short: as §1

S. pneumoniae D39V [4] = assay: as above
In short: as §1

S. aureus Newman [5] = assay: Bliss interaction score (quartile over a dose matrix) (fitness difference); higher = more antagonism (negative = synergy)
In short: (§2)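 Fitness was derived from optical density at entry into stationary phase, divided by the robust mean of the no-drug wells on the same plate. That reading was taken as OD595, and the ratio was capped at 1. Single-drug fitness was inferred from the combination data. The Bliss score, observed fitness minus the expected product of single-drug fitness, was summarised as quartiles over technical, biological and donor/recipient replicates.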

B. subtilis 168 [6] = assay: as above
In short: as §2

S. aureus DSM 20231 [7] = assay: as above
In short: as §2

S. pneumoniae D39V [8] = assay: as above
In short: as §2

[9] = first compound 0.0156 µg/mL, partner 1.25 µg/mL
[10] = first compound 0.0156 µg/mL, partner 2.5 µg/mL
[11] = first compound 0.0156 µg/mL, partner 5 µg/mL
[12] = first compound 0.0312 µg/mL, partner 1.25 µg/mL
[13] = first compound 0.0312 µg/mL, partner 2.5 µg/mL
[14] = first compound 0.0312 µg/mL, partner 5 µg/mL
[15] = first compound 0.0625 µg/mL, partner 5 µg/mL
[16] = first compound 0.0156 µg/mL, partner 0.15 µg/mL
[17] = first compound 0.0156 µg/mL, partner 0.3 µg/mL
[18] = first compound 0.0156 µg/mL, partner 0.6 µg/mL
[19] = first compound 0.0312 µg/mL, partner 0.15 µg/mL
[20] = first compound 0.0312 µg/mL, partner 0.3 µg/mL
[21] = first compound 0.0312 µg/mL, partner 0.6 µg/mL
[22] = first compound 0.0625 µg/mL, partner 0.15 µg/mL
[23] = first compound 0.0625 µg/mL, partner 0.3 µg/mL
[24] = first compound 0.0625 µg/mL, partner 0.6 µg/mL
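Throughout, for Bliss interaction score (quartile over a dose matrix): first quartile when negative (synergy) and third quartile when positive (antagonism).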

Cc1onc(-c2ccccc2)c1C(=O)N[C@@H]1C(=O)N2[C@@H]1SC(C)(C)[C@@H]2C(=O)O [Oxacillin] + CN1C2=CC=CC=C2N=C3C1=CC=CC3=O [Pyocyanin] gave a fitness (S. aureus Newman [1]; [9]) of 0.744, a fitness (S. aureus Newman [1]; [10]) of 0.683 and a fitness (S. aureus Newman [1]; [11]) of 0.424. The fitness (S. aureus Newman [1]; [12]) was 0.625, the fitness (S. aureus Newman [1]; [13]) was 0.596 and the fitness (S. aureus Newman [1]; [14]) was 0.336. It also gave a fitness (S. aureus Newman [1]; [15]) of 0.305, a fitness (B. subtilis 168 [2]; first compound 0.002 µg/mL, partner 1.25 µg/mL) of 0.93 and a fitness (B. subtilis 168 [2]; first compound 0.002 µg/mL, partner 2.5 µg/mL) of 0.891. It also gave a fitness (B. subtilis 168 [2]; first compound 0.002 µg/mL, partner 5 µg/mL) of 0.768, a fitness (B. subtilis 168 [2]; first compound 0.004 µg/mL, partner 1.25 µg/mL) of 0.918 and a fitness (B. subtilis 168 [2]; first compound 0.004 µg/mL, partner 2.5 µg/mL) of 0.839. For the same compound, the fitness (B. subtilis 168 [2]; first compound 0.004 µg/mL, partner 5 µg/mL) was 0.703, the fitness (B. subtilis 168 [2]; first compound 0.008 µg/mL, partner 1.25 µg/mL) was 0.847 and the fitness (B. subtilis 168 [2]; first compound 0.008 µg/mL, partner 2.5 µg/mL) was 0.79. It also gave a fitness (B. subtilis 168 [2]; first compound 0.008 µg/mL, partner 5 µg/mL) of 0.675, a fitness (B. subtilis 168 [2]; first compound 0.075 µg/mL, partner 1.25 µg/mL, one replicate) of 0.463 and a fitness (B. subtilis 168 [2]; first compound 0.075 µg/mL, partner 2.5 µg/mL, one replicate) of 0.404. For the same compound, the fitness (B. subtilis 168 [2]; first compound 0.075 µg/mL, partner 5 µg/mL, one replicate) was 0.145, the fitness (B. subtilis 168 [2]; first compound 0.15 µg/mL, partner 1.25 µg/mL, one replicate) was 0.0474 and the fitness (B. subtilis 168 [2]; first compound 0.15 µg/mL, partner 2.5 µg/mL, one replicate) was 0.0413. It also gave a fitness (B. subtilis 168 [2]; first compound 0.15 µg/mL, partner 5 µg/mL, one replicate) of 0.0518, a fitness (B. subtilis 168 [2]; first compound 0.3 µg/mL, partner 1.25 µg/mL, one replicate) of 0.0657 and a fitness (B. subtilis 168 [2]; first compound 0.3 µg/mL, partner 2.5 µg/mL, one replicate) of 0.0539. For the same compound, the fitness (B. subtilis 168 [2]; first compound 0.3 µg/mL, partner 5 µg/mL, one replicate) was 0.0652, the fitness (S. aureus DSM 20231 [3]; [9]) was 0.761 and the fitness (S. aureus DSM 20231 [3]; [10]) was 0.766. The fitness (S. aureus DSM 20231 [3]; [11]) was 0.493, the fitness (S. aureus DSM 20231 [3]; [12]) was 0.643 and the fitness (S. aureus DSM 20231 [3]; [13]) was 0.635. The fitness (S. aureus DSM 20231 [3]; [14]) was 0.468, the fitness (S. aureus DSM 20231 [3]; first compound 0.0625 µg/mL, partner 1.25 µg/mL) was 0.48 and the fitness (S. aureus DSM 20231 [3]; first compound 0.0625 µg/mL, partner 2.5 µg/mL) was 0.482. It also gave a fitness (S. aureus DSM 20231 [3]; [15]) of 0.362, a fitness (S. pneumoniae D39V [4]; first compound 0.01 µg/mL, partner 0.325 µg/mL) of at least 1 and a fitness (S. pneumoniae D39V [4]; first compound 0.01 µg/mL, partner 0.65 µg/mL) of at least 1. For the same compound, the fitness (S. pneumoniae D39V [4]; first compound 0.01 µg/mL, partner 1.3 µg/mL) was 0.684, the fitness (S. pneumoniae D39V [4]; first compound 0.02 µg/mL, partner 0.325 µg/mL) was 0.988 and the fitness (S. pneumoniae D39V [4]; first compound 0.02 µg/mL, partner 0.65 µg/mL) was 0.979. It also gave a fitness (S. pneumoniae D39V [4]; first compound 0.02 µg/mL, partner 1.3 µg/mL) of 0.672, a fitness (S. pneumoniae D39V [4]; first compound 0.04 µg/mL, partner 0.325 µg/mL) of 0.722 and a fitness (S. pneumoniae D39V [4]; first compound 0.04 µg/mL, partner 0.65 µg/mL) of 0.781. The fitness (S. pneumoniae D39V [4]; first compound 0.04 µg/mL, partner 1.3 µg/mL) was 0.547, the Bliss interaction score (S. aureus Newman [5]) was -0.0412 and the Bliss interaction score (B. subtilis 168 [6]) was -0.0582. For the same compound, the Bliss interaction score (S. aureus DSM 20231 [7]) was -0.0528 and the Bliss interaction score (S. pneumoniae D39V [8]) was 0.188.

Cc1onc(-c2ccccc2)c1C(=O)N[C@@H]1C(=O)N2[C@@H]1SC(C)(C)[C@@H]2C(=O)O [Oxacillin] + CN(N=O)C(=O)N[C@@H](C=O)[C@@H](O)[C@H](O)[C@H](O)CO [Streptozotocin] showed a fitness (S. aureus Newman [1]; [16]) of 0.663, a fitness (S. aureus Newman [1]; [17]) of 0.593 and a fitness (S. aureus Newman [1]; [18]) of 0.454. For the same compound, the fitness (S. aureus Newman [1]; [19]) was 0.613, the fitness (S. aureus Newman [1]; [20]) was 0.57 and the fitness (S. aureus Newman [1]; [21]) was 0.387. It also gave a fitness (S. aureus Newman [1]; [22]) of 0.538, a fitness (S. aureus Newman [1]; [23]) of 0.466 and a fitness (S. aureus Newman [1]; [24]) of 0.228. For the same compound, the fitness (B. subtilis 168 [2]; first compound 0.002 µg/mL, partner 0.15 µg/mL, one replicate) was at least 1, the fitness (B. subtilis 168 [2]; first compound 0.002 µg/mL, partner 0.3 µg/mL, one replicate) was 0.98 and the fitness (B. subtilis 168 [2]; first compound 0.002 µg/mL, partner 0.6 µg/mL, one replicate) was 0.998. For the same compound, the fitness (B. subtilis 168 [2]; first compound 0.004 µg/mL, partner 0.15 µg/mL, one replicate) was at least 1, the fitness (B. subtilis 168 [2]; first compound 0.004 µg/mL, partner 0.3 µg/mL, one replicate) was at least 1 and the fitness (B. subtilis 168 [2]; first compound 0.004 µg/mL, partner 0.6 µg/mL, one replicate) was at least 1. For the same compound, the fitness (B. subtilis 168 [2]; first compound 0.008 µg/mL, partner 0.15 µg/mL, one replicate) was 0.946, the fitness (B. subtilis 168 [2]; first compound 0.008 µg/mL, partner 0.3 µg/mL, one replicate) was 0.983 and the fitness (B. subtilis 168 [2]; first compound 0.008 µg/mL, partner 0.6 µg/mL, one replicate) was 0.882. For the same compound, the fitness (B. subtilis 168 [2]; first compound 0.075 µg/mL, partner 0.15 µg/mL, one replicate) was 0.593, the fitness (B. subtilis 168 [2]; first compound 0.075 µg/mL, partner 0.3 µg/mL, one replicate) was 0.377 and the fitness (B. subtilis 168 [2]; first compound 0.075 µg/mL, partner 0.6 µg/mL, one replicate) was 0.593. It also gave a fitness (B. subtilis 168 [2]; first compound 0.15 µg/mL, partner 0.15 µg/mL, one replicate) of 0.0403, a fitness (B. subtilis 168 [2]; first compound 0.15 µg/mL, partner 0.3 µg/mL, one replicate) of 0.0243 and a fitness (B. subtilis 168 [2]; first compound 0.15 µg/mL, partner 0.6 µg/mL, one replicate) of 0.0217. It also gave a fitness (B. subtilis 168 [2]; first compound 0.3 µg/mL, partner 0.15 µg/mL, one replicate) of 0.0476, a fitness (B. subtilis 168 [2]; first compound 0.3 µg/mL, partner 0.3 µg/mL, one replicate) of 0.0338 and a fitness (B. subtilis 168 [2]; first compound 0.3 µg/mL, partner 0.6 µg/mL, one replicate) of 0.0158. For the same compound, the fitness (S. aureus DSM 20231 [3]; [16]) was 0.693, the fitness (S. aureus DSM 20231 [3]; [17]) was 0.635 and the fitness (S. aureus DSM 20231 [3]; [18]) was 0.549. The fitness (S. aureus DSM 20231 [3]; [19]) was 0.596, the fitness (S. aureus DSM 20231 [3]; [20]) was 0.582 and the fitness (S. aureus DSM 20231 [3]; [21]) was 0.494. For the same compound, the fitness (S. aureus DSM 20231 [3]; [22]) was 0.462, the fitness (S. aureus DSM 20231 [3]; [23]) was 0.493 and the fitness (S. aureus DSM 20231 [3]; [24]) was 0.396. The fitness (S. pneumoniae D39V [4]; first compound 0.01 µg/mL, partner 1.2 µg/mL) was 0.941, the fitness (S. pneumoniae D39V [4]; first compound 0.01 µg/mL, partner 2.4 µg/mL) was 0.977 and the fitness (S. pneumoniae D39V [4]; first compound 0.01 µg/mL, partner 4.8 µg/mL) was 0.927. For the same compound, the fitness (S. pneumoniae D39V [4]; first compound 0.02 µg/mL, partner 1.2 µg/mL) was 0.889, the fitness (S. pneumoniae D39V [4]; first compound 0.02 µg/mL, partner 2.4 µg/mL) was 0.873 and the fitness (S. pneumoniae D39V [4]; first compound 0.02 µg/mL, partner 4.8 µg/mL) was 0.866. The fitness (S. pneumoniae D39V [4]; first compound 0.04 µg/mL, partner 1.2 µg/mL) was 0.243, the fitness (S. pneumoniae D39V [4]; first compound 0.04 µg/mL, partner 2.4 µg/mL) was 0.245 and the fitness (S. pneumoniae D39V [4]; first compound 0.04 µg/mL, partner 4.8 µg/mL) was 0.212. The Bliss interaction score (S. aureus Newman [5]) was -0.0656, the Bliss interaction score (B. subtilis 168 [6]) was 0.0537 and the Bliss interaction score (S. aureus DSM 20231 [7]) was -0.0548. It also gave a Bliss interaction score (S. pneumoniae D39V [8]) of -0.0748.
